Results from PubChem BioAssay (NCI).
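Following 48 hours of exposure in 96-well plates, responses at five concentrations were used to interpolate endpoints linearly. Abbreviation: GI50, concentration required for 50% inhibition of growth. TGI marks complete inhibition of growth.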

Columns and labels:
Experiment in all cases: NCI tumour cell line growth inhibition, 48 h
[1] = test system: EKVX NSCLC
[2] = test system: SR leukemia
[3] = test system: OVCAR-3 ovarian
[4] = test system: SF-539 CNS
[5] = test system: HOP-62 NSCLC
[6] = test system: KM12 colon
[7] = test system: NCI-H522 lung
[8] = test system: COLO 205 colon
[9] = test system: HL-60(TB) leukemia
[10] = test system: U251 CNS
[11] = test system: NCI-H460 lung
[12] = test system: SK-MEL-5 melanoma
[13] = test system: SK-MEL-2 melanoma
[14] = test system: 786-0 renal
[15] = test system: PC-3 prostate
[16] = test system: NCI/ADR-RES ovarian
[17] = test system: SNB-19 CNS
[18] = test system: UACC-62 melanoma
[19] = test system: UACC-257 melanoma
[20] = test system: HCT-15 colon
[21] = test system: NCI-H23 lung
[22] = test system: SK-OV-3 ovarian
[23] = test system: A498 renal
[24] = test system: HOP-92 NSCLC
[25] = test system: IGROV1 ovarian
[26] = test system: TK-10 renal
[27] = test system: RXF 393 renal
[28] = test system: CAKI-1 renal
[29] = test system: ACHN renal
[30] = test system: RPMI-8226 leukemia
[31] = test system: SK-MEL-28 melanoma
[32] = test system: MOLT-4 leukemia
[33] = test system: HT29 colon
[34] = test system: SF-295 CNS
[35] = test system: MDA-MB-435
[36] = test system: OVCAR-8 ovarian
[37] = test system: SNB-75 CNS
[38] = test system: LOX IMVI melanoma
[39] = test system: OVCAR-5 ovarian
[40] = test system: SN12C renal
[41] = test system: HCT-116 colon
[42] = test system: SF-268 CNS
[43] = test system: DU-145 prostate
[44] = test system: K-562 leukemia
[45] = test system: A549 NSCLC
[46] = test system: HS 578T breast
[47] = test system: MDA-MB-231 breast
[48] = test system: UO-31 renal
[49] = test system: OVCAR-4 ovarian
[50] = test system: M14 melanoma
[51] = test system: SW-620 colon
[52] = test system: MALME-3M melanoma
[53] = test system: HCC-2998 colon
[54] = test system: MCF7 breast
[55] = test system: T-47D breast
[56] = test system: BT-549 breast
[57] = test system: NCI-H226 lung
[58] = test system: CCRF-CEM leukemia

Compound Cc1cc(-c2cc(OC(=O)c3ccccc3)ccc2Cl)cc2nnc(Nc3ccc(OCCN4CCCC4)cc3)nc12 has a GI50 [1] of 1.61 µM, a TGI [1] of 3.09 µM and a GI50 [2] of 0.46 µM. For the same compound, the TGI [2] was 2.48 µM, the GI50 [3] was 1.6 µM and the TGI [3] was 2.97 µM. The GI50 [4] was 1.29 µM, the TGI [4] was 2.57 µM and the GI50 [5] was 1.55 µM. For the same compound, the TGI [5] was 3.27 µM, the GI50 [6] was 1.84 µM and the TGI [6] was 3.42 µM. The GI50 [7] was 1.37 µM, the TGI [7] was 3.08 µM and the GI50 [8] was 1.68 µM. It also gave a TGI [8] of 3.6 µM, a GI50 [9] of 2.47 µM and a TGI [9] of 4.69 µM. It also gave a GI50 [10] of 1.65 µM, a TGI [10] of 3.16 µM and a GI50 [11] of 1.72 µM. For the same compound, the TGI [11] was 3.3 µM, the GI50 [12] was 1.52 µM and the TGI [12] was 2.89 µM. It also gave a GI50 [13] of 1.78 µM, a TGI [13] of 3.45 µM and a GI50 [14] of 1.89 µM. It also gave a TGI [14] of 3.5 µM, a GI50 [15] of 1.16 µM and a TGI [15] of 2.47 µM. It also gave a GI50 [16] of 1.86 µM, a TGI [16] of 4.1 µM and a GI50 [17] of 1.86 µM. The TGI [17] was 3.37 µM, the GI50 [18] was 1.71 µM and the TGI [18] was 3.36 µM. The GI50 [19] was 1.62 µM, the TGI [19] was 3.14 µM and the GI50 [20] was 0.197 µM. For the same compound, the TGI [20] was 0.393 µM, the GI50 [21] was 1.72 µM and the TGI [21] was 3.66 µM. It also gave a GI50 [22] of 1.58 µM, a TGI [22] of 3.09 µM and a GI50 [23] of 9.84 µM. The GI50 [24] was 0.303 µM, the TGI [24] was 1.69 µM and the GI50 [25] was 1.76 µM. For the same compound, the TGI [25] was 3.78 µM, the GI50 [26] was 1.63 µM and the TGI [26] was 3.03 µM. For the same compound, the GI50 [27] was 1.16 µM, the TGI [27] was 2.48 µM and the GI50 [28] was 1.36 µM. The TGI [28] was 2.69 µM, the GI50 [29] was 1.35 µM and the TGI [29] was 2.63 µM. It also gave a GI50 [30] of 1.6 µM, a TGI [30] of 3.63 µM and a GI50 [31] of 1.5 µM. It also gave a TGI [31] of 2.93 µM, a GI50 [32] of 2.01 µM and a TGI [32] of 4.74 µM. It also gave a GI50 [33] of 1.61 µM, a TGI [33] of 3.04 µM and a GI50 [34] of 1.45 µM. For the same compound, the TGI [34] was 2.79 µM, the GI50 [35] was 1.62 µM and the TGI [35] was 3.02 µM. It also gave a GI50 [36] of 1.7 µM, a TGI [36] of 3.67 µM and a GI50 [37] of 0.508 µM. It also gave a TGI [37] of 1.89 µM, a GI50 [38] of 1.45 µM and a TGI [38] of 2.95 µM. The GI50 [39] was 1.5 µM, the TGI [39] was 2.84 µM and the GI50 [40] was 1.49 µM. For the same compound, the TGI [40] was 3.1 µM, the GI50 [41] was 1.59 µM and the TGI [41] was 3.16 µM. The GI50 [42] was 1.88 µM, the TGI [42] was 3.75 µM and the GI50 [43] was 1.75 µM. For the same compound, the TGI [43] was 3.17 µM, the GI50 [44] was 0.0472 µM and the TGI [44] was 0.324 µM. It also gave a GI50 [45] of 1.72 µM, a TGI [45] of 3.29 µM and a GI50 [46] of 1.58 µM. The TGI [46] was 3.94 µM, the GI50 [47] was 1.05 µM and the TGI [47] was 2.31 µM. The GI50 [48] was 1.19 µM, the TGI [48] was 2.44 µM and the GI50 [49] was 1.65 µM. For the same compound, the TGI [49] was 3.16 µM, the GI50 [50] was 1.64 µM and the TGI [50] was 3.24 µM. For the same compound, the GI50 [51] was 0.265 µM, the TGI [51] was 0.571 µM and the GI50 [52] was 1.45 µM. The TGI [52] was 2.93 µM, the GI50 [53] was 1.81 µM and the TGI [53] was 3.37 µM. The GI50 [54] was 0.186 µM, the TGI [54] was 0.403 µM and the GI50 [55] was 1.57 µM. It also gave a TGI [55] of 3.55 µM, a GI50 [56] of 2.67 µM and a TGI [56] of 6.68 µM.
Compound COc1cc(C2CC(c3cccc(Nc4ccnc5cc(Cl)ccc45)c3)=NN2c2ccccc2)cc(OC)c1OC (configuration not stated) has a GI50 [2] of 5.49 µM, a TGI [2] greater than 100 µM and a GI50 [3] of 8.64 µM. The TGI [3] was greater than 100 µM, the GI50 [4] was 3.08 µM and the TGI [4] was 18.1 µM. For the same compound, the GI50 [5] was 3.81 µM, the TGI [5] was greater than 100 µM and the GI50 [6] was 2 µM. For the same compound, the TGI [6] was greater than 100 µM, the GI50 [7] was 3.6 µM and the TGI [7] was greater than 100 µM. The GI50 [8] was 15.7 µM, the TGI [8] was 46.3 µM and the GI50 [9] was 5.37 µM. For the same compound, the TGI [9] was greater than 100 µM, the GI50 [11] was 3.27 µM and the TGI [11] was greater than 100 µM. For the same compound, the GI50 [12] was 4.56 µM, the TGI [12] was 23.8 µM and the GI50 [13] was 8.78 µM. It also gave a TGI [13] of 75.6 µM, a GI50 [14] of 5.88 µM and a TGI [14] greater than 100 µM. The GI50 [57] was 41.2 µM, the TGI [57] was greater than 100 µM and the GI50 [15] was 1.71 µM. For the same compound, the TGI [15] was greater than 100 µM, the GI50 [16] was 5.97 µM and the TGI [16] was greater than 100 µM. It also gave a GI50 [17] greater than 100 µM, a TGI [17] greater than 100 µM and a GI50 [18] of 0.869 µM. The TGI [18] was greater than 100 µM, the GI50 [19] was 10.5 µM and the TGI [19] was greater than 100 µM. It also gave a GI50 [20] of 2.91 µM, a TGI [20] greater than 100 µM and a GI50 [21] of 64.4 µM. For the same compound, the TGI [21] was greater than 100 µM, the GI50 [22] was greater than 100 µM and the TGI [22] was greater than 100 µM. The GI50 [24] was 3.6 µM, the TGI [24] was greater than 100 µM and the GI50 [25] was 29.2 µM. It also gave a TGI [25] greater than 100 µM, a GI50 [26] of 9.57 µM and a TGI [26] greater than 100 µM. It also gave a GI50 [27] of 8.37 µM, a TGI [27] greater than 100 µM and a GI50 [28] of 2.52 µM. It also gave a TGI [28] greater than 100 µM, a GI50 [29] of 3.52 µM and a TGI [29] greater than 100 µM. For the same compound, the GI50 [30] was 5.33 µM, the TGI [30] was greater than 100 µM and the GI50 [31] was 10.4 µM. For the same compound, the TGI [31] was greater than 100 µM, the GI50 [32] was 7.98 µM and the TGI [32] was greater than 100 µM. It also gave a GI50 [34] of 3.55 µM, a TGI [34] greater than 100 µM and a GI50 [35] of 1.47 µM. It also gave a TGI [35] of 14.2 µM, a GI50 [36] of 7.68 µM and a TGI [36] greater than 100 µM. It also gave a GI50 [58] of 6.4 µM, a TGI [58] greater than 100 µM and a GI50 [37] of 6.6 µM. It also gave a TGI [37] greater than 100 µM, a GI50 [38] of 2.3 µM and a TGI [38] greater than 100 µM. The GI50 [39] was greater than 100 µM, the TGI [39] was greater than 100 µM and the GI50 [40] was greater than 100 µM. It also gave a TGI [40] greater than 100 µM, a GI50 [41] of 6.51 µM and a TGI [41] greater than 100 µM. The GI50 [42] was 75.5 µM, the TGI [42] was greater than 100 µM and the GI50 [43] was greater than 100 µM. For the same compound, the TGI [43] was greater than 100 µM, the GI50 [44] was 3.75 µM and the TGI [44] was greater than 100 µM. It also gave a GI50 [45] of 8.87 µM, a TGI [45] greater than 100 µM and a GI50 [46] of 9.22 µM. It also gave a TGI [46] greater than 100 µM, a GI50 [47] of 4.77 µM and a TGI [47] greater than 100 µM. The GI50 [48] was 1.68 µM, the TGI [48] was greater than 100 µM and the GI50 [50] was 2.6 µM. The TGI [50] was greater than 100 µM, the GI50 [51] was 2.44 µM and the TGI [51] was greater than 100 µM. For the same compound, the GI50 [52] was greater than 100 µM, the TGI [52] was greater than 100 µM and the GI50 [53] was 5.32 µM. For the same compound, the TGI [53] was 33.8 µM, the GI50 [54] was 2.74 µM and the TGI [54] was greater than 100 µM. For the same compound, the GI50 [55] was 1.44 µM, the TGI [55] was greater than 100 µM and the GI50 [56] was 13.9 µM. It also gave a TGI [56] greater than 100 µM.
